Laboratory results: article PMC12472586, “Leveraging Natural Compounds for Pancreatic Lipase Inhibition via Virtual Screening” (Pharmaceuticals, 2025)
Where two headings read alike, the source gives them in different places.

Target: T1, porcine pancreatic lipase (triacylglycerol acyl hydrolase; EC 3.1.1.3) (Sus scrofa, UniProt P00591)
T1 sequence (P00591 1-450): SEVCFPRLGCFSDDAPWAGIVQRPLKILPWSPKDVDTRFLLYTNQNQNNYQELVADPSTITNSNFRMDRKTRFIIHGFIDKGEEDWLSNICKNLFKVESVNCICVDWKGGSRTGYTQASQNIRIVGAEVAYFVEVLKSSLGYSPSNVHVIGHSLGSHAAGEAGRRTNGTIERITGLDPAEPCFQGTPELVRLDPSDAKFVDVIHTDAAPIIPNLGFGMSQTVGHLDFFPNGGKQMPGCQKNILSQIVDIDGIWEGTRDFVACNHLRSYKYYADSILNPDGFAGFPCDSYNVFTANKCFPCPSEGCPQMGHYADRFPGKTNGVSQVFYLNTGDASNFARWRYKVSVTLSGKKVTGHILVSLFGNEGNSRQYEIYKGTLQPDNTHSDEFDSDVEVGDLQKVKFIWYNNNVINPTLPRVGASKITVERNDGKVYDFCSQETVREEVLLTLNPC
Assay: In vitro pancreatic lipase inhibition, 4-nitrophenyl butyrate substrate
Type: biochemical
Settings: means ± SD (n = 3), PBS pH 7.2, 37 °C, OD 405 nm
Procedure: The inhibition of PL was evaluated using a previously reported method.
The inhibition studies of porcine pancreatic lipase (triacylglycerol acyl hydrolase; EC 3.1.1.3) were performed employing 4-nitrophenyl butyrate as a substrate. The compounds were dissolved in MeOH at concentrations from 0.22 mM to 2.7 mM. […] Then, the substrate solution was added (10 μL of 3.2 mM in H2O:DMF, 70:30), and the plate was incubated and shaken for 30 min at 37 °C. The optical density values (OD) were acquired at 405 nm with a Synergy H1 microplate reader (BioTek, Bad Friedrichshall, Germany). The experiments were performed in triplicate, and the %inhibition was determined by the following equation:(1) %inhibition=ODcontrol−ODsample/ODcontrol× 100% where ODcontrol refers to the enzyme–substrate mixture, while ODsample corresponds to the enzyme–substrate mixture in the presence of the inhibitor.
OriginPro 2023 software (OriginLab Corp., Northampton, MA, USA) was adopted for statistical analysis. The regression coefficients were determined based on the analysis of variance (one-way ANOVA, significance level 0.01). A p-value < 0.01 was set as the threshold for significance for Tukey’s test.

IC50 (read-out: IC50) [µM] | IC50 | SMILES
84.5 ± 1.5 |  | C/C(=C\COc1c2ccoc2cc2oc(=O)ccc12)CCC(O)C(C)(C)O (centres unmarked) [Dihydroxybergamottin]
12.3 ± 1.2 | low micromolar range | COc1cc([C@H]2c3cc(O)c(OC)cc3C[C@@H](CO)[C@@H]2CO)ccc1O [Isolariciresinol]
13.2 ± 0.6 | low micromolar range | Oc1ccc(/C=C/c2cc(O)cc3c2[C@@H](c2cc(O)cc(O)c2)[C@H](c2ccc(O)cc2)O3)cc1 [ε-Viniferin, Ɛ-Viniferin]
